Consider four compounds from US11286258B2, “Nature-inspired anticancer and antibacterial motifs and pharmaceutical composition thereof” (University of Sharjah, priority 2020, dated 2022).

A word on the IC50: it is the midpoint of a concentration-inhibition curve. For orientation: MIC means the least concentration at which growth counts as inhibited.

One assay deals with HELA. Briefly: MTT cell viability, HELA. Type of assay: cell-based. Particulars: Homo sapiens, cervical cancer, 48 h of drug treatment, average of three experiments. The source says: (§1) Cell culture: In this study five different cancer cell lines were used, human lung carcinoma (A549), human breast adenoma (MCF-7), Cervical carcinoma (Hela), hepatocellular carcinoma (Hep3B), and colorectal adenocarcinoma (HCT-116). These cells were obtained from the European Collection of Cell Cultures (ECACC, UK). Hep3B cells were maintained in Dulbecco's Modified Eagle Medium (DMEM: Sigma-Aldrich), and the four other cell lines were maintained in Roswell Park Memorial Institute medium (RPMI, Sigma-Aldrich, St. Louis, Mo., USA), which was supplemented with 10% fetal bovine serum (FBS, Sigma-Aldrich) and 1% penicillin/streptomycin (Sigma-Aldrich). Cells were incubated all the time at 37° C. in a humidified atmosphere of 5% CO2. Cell viability studies: Cell viability was assessed using the MTT assay as described before. In brief, all cancer cell lines were seeded at a density of 4×10^4/well in 96 well flat-bottom plates. After 24 h from seeding, cells were treated with the synthesized compounds and left for an incubation period of 48 h. Upon reaching the indicated time point, the media was removed and replaced with 200 μL fresh media containing 0.5 mg/mL of MTT tetrazolium dye (Sigma-Aldrich). Cells were then incubated with MTT solution for 2 h at 37° C. The resultant formazan crystals were dissolved in 200 μl/well of DMSO and absorbance was measured at 570 nm using a microplate reader (Thermo Scientific).

For another assay, the system named is A549. Briefly: MTT cell viability, A549. Type of assay: cell-based. The conditions noted are these: Homo sapiens, lung cancer, 48 h of drug treatment, average of three experiments.
Excerpt: as §1

Another assay deals with HEP3B. Put plainly: MTT cell viability, HEP3B. Type of assay: cell-based. The conditions noted are these: Homo sapiens, liver cancer, 48 h of drug treatment, average of three experiments.
Excerpt: as §1

Another assay relates to MCF-7. Put plainly: MTT cell viability, MCF-7. Type of assay: cell-based. Particulars: Homo sapiens, MCF7; breast cancer; 48 h of drug treatment; average of three experiments.
Excerpt: as §1

Assay [1] deals with normal epithelial cells (HMEC). Put plainly: Cell viability, normal epithelial cells. Type of assay: cell-based. The conditions noted are these: Homo sapiens, 48 h of drug treatment, average of three experiments. As for the experimental part: Cell viability studies: Cell viability was assessed using the MTT assay as described before. In brief, all cancer cell lines were seeded at a density of 4×10^4/well in 96 well flat-bottom plates. After 24 h from seeding, cells were treated with the synthesized compounds and left for an incubation period of 48 h. Upon reaching the indicated time point, the media was removed and replaced with 200 μL fresh media containing 0.5 mg/mL of MTT tetrazolium dye (Sigma-Aldrich). Cells were then incubated with MTT solution for 2 h at 37° C. The resultant formazan crystals were dissolved in 200 μl/well of DMSO and absorbance was measured at 570 nm using a microplate reader (Thermo Scientific).

Assay [2] concerns MRSA-1 (clinical isolate). Put plainly: MIC broth microdilution, MRSA-1. The conditions noted are these: Staphylococcus aureus, MRSA; overnight incubation, Mueller-Hinton broth; read-out: MIC MRSA-1 (clinical isolate). The class given is cell-based, Staphylococcus aureus. An outline of the steps:
(§2)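 Exponentially growing cells were diluted in Mueller-Hinton broth to roughly 5×10^5 CFU/mL. Eight two-fold concentrations of compound (100 down to 0.78 μg/mL) were added, and plates sat overnight at 37° C. Wells were then scored for turbidity.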
A general note: In broth dilution the organism is exposed to a series of concentrations in liquid medium.

Assay [3] relates to MRSA-2 (clinical isolate). Put plainly: MIC broth microdilution, MRSA-2. The class given is cell-based, Staphylococcus aureus. The conditions noted are these: Staphylococcus aureus, MRSA; overnight incubation, Mueller-Hinton broth; read-out: MIC MRSA-2 (clinical isolate). An outline of the steps:
as §2

Assay [4] relates to MRSA-3 (clinical isolate). Put plainly: MIC broth microdilution, MRSA-3. The class given is cell-based, Staphylococcus aureus. Particulars: Staphylococcus aureus, MRSA; overnight incubation, Mueller-Hinton broth; read-out: MIC MRSA-3 (clinical isolate). An outline of the steps:
as §2

Another assay deals with MRSA-ATCC33591. Briefly: MIC broth microdilution, MRSA ATCC33591. The class given is cell-based, Staphylococcus aureus. Particulars: Staphylococcus aureus; overnight incubation, Mueller-Hinton broth; read-out: MIC MRSA-ATCC33591. An outline of the steps: as §2
The next assay deals with MRSA-ATCC700699 (VISA). Put plainly: MIC broth microdilution, MRSA ATCC700699 (VISA). The class given is cell-based, Staphylococcus aureus. The conditions noted are these: for MIC: Staphylococcus aureus, strain intermediately resistant to vancomycin, overnight incubation, read-out: MIC MRSA-ATCC700699 (VISA). An outline of the steps:
as §2

The test system of a further assay is E. coli ATCC25922. Briefly: MIC broth microdilution, E. coli ATCC25922. Type of assay: cell-based, Escherichia coli. Particulars: Escherichia coli, ATCC25922; not MDR; overnight incubation. An outline of the steps:
(§3)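 CLSI-guided microdilution testing determines the minimum concentration that prevents visible bacterial growth. Cultures in Mueller-Hinton broth face compound between 100 and 0.78 μg/mL and are incubated overnight at 37° C.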

The test system of assay [5] is E. coli ATCC BAA2469 (NDM-1 carbapenem-resistant). Put plainly: MIC broth microdilution, E. coli ATCC BAA2469. Type of assay: cell-based, Escherichia coli. The conditions noted are these: overnight incubation; for MIC: Escherichia coli, ATCCBAA2469, MDR; for MIC E. coli ATCC BAA2469 (NDM-1 carbapenem-resistant): MDR. The method, boiled down: as §3
In assay [6] the test system is E. coli CDC-AR-0346 (ESBL, colistin resistant). Briefly: MIC broth microdilution, E. coli CDC-AR-0346. The class given is cell-based, Escherichia coli. The conditions noted are these: for MIC fold higher than that of colistin: E. coli CDC-AR-0346, colistin 6.25 μg/mL; for MIC: Escherichia coli, MDR, overnight incubation. An outline of the steps: as §3
Assay [7] has as its system Acinetobacter baumannii ATCC 19606. Briefly: MIC broth microdilution, A. baumannii ATCC 19606. Type of assay: cell-based. The conditions noted are these: Acinetobacter baumannii, ATCC19606; not MDR; overnight incubation. The method, boiled down:
as §2

Assay [8] has as its system Acinetobacter baumannii ATCC BAA1605 (carbapenem-resistant). Put plainly: MIC broth microdilution, A. baumannii ATCC BAA1605. Type of assay: cell-based. Particulars: Acinetobacter baumannii, ATCCBAA1605, MDR; overnight incubation. An outline of the steps:
as §3

In brackets after ≈: the same amount, converted by molar mass.

In the case of `FC(F)(F)c1ccc(N/N=C2\C=C[C@@]3(CC2)CC[C@@H]2NCCc4c2n3c2ccccc42)cc1` (racemic) [Compound 1e], the IC50 in the assay on HELA amounted to 2.56 ± 0.58 µM; in the assay on A549, 4.011 ± 0.02 µM; in the assay on HEP3B, 2.03 ± 0.08 µM; in the assay on MCF-7 it was 1.86 ± 0.03 µM; in [1] it was 2.91 ± 0.07 µM. The MIC in assay [2] came out at 1.56 µg/mL (≈ 3.46 µM); in [3], 1.56 µg/mL (≈ 3.46 µM); in assay [4], 1.56 µg/mL (≈ 3.46 µM); in the assay on MRSA-ATCC33591 it was 3.12 µg/mL (≈ 6.94 µM); in the assay with MRSA-ATCC700699 (VISA), 3.12 µg/mL (≈ 6.94 µM); against E. coli ATCC25922 it was 6.25 µg/mL (≈ 13.9 µM). Besides, the MIC was 6.25 to 12.5 µg/mL (≈ 13.9 to 27.7 µM) in assay [5], 12.5 µg/mL (≈ 27.7 µM) in [6], 6.25 µg/mL (≈ 13.9 µM) in assay [7] and 12.5 µg/mL (≈ 27.7 µM) in assay [8]. In addition, the “MIC E. coli ATCC BAA2469 (NDM-1 carbapenem-resistant)” value in [5] is 12.5 µg/mL (≈ 27.7 µM). In assay [6], the “MIC fold higher than that of colistin” value was found to be 2 fold.
`FC(F)(F)Oc1ccc(N/N=C2\C=C[C@@]3(CC2)CC[C@@H]2NCCc4c2n3c2ccccc42)cc1` [Compound 1f]: the IC50 with HELA was 3.89 ± 0.07 µM; with A549, 5.99 ± 0.03 µM; in the assay on HEP3B, 2.64 ± 0.03 µM; in the assay with MCF-7 it was 3.56 ± 0.1 µM; in assay [1] it was 18.38 ± 0.05 µM. The MIC in assay [2] was 6.25 µg/mL (≈ 13.4 µM); in [3], 6.25 µg/mL (≈ 13.4 µM); in [4] it was 6.25 µg/mL (≈ 13.4 µM); in the assay with MRSA-ATCC33591, 6.25 µg/mL (≈ 13.4 µM); with MRSA-ATCC700699 (VISA), 6.25 µg/mL (≈ 13.4 µM); with E. coli ATCC25922 it was 12.5 µg/mL (≈ 26.8 µM). Further, the MIC in [5] stood at 25 µg/mL (≈ 53.6 µM); in assay [6], 25 µg/mL (≈ 53.6 µM); in [7], 12.5 µg/mL (≈ 26.8 µM); in assay [8] it was 25 µg/mL (≈ 53.6 µM).
As for `Cc1ccc2c(c1)c1c3n2[C@@]2(C=C/C(=N\Nc4ccc(C(F)(F)F)cc4)CC2)CC[C@@H]3NCC1` [Compound 1h], the IC50 in the assay on HELA worked out at 3.5 ± 0.06 µM; with A549, 4.897 ± 0.03 µM; in the assay on HEP3B it was 2.56 ± 0.07 µM; in the assay on MCF-7 it was 3.72 ± 0.05 µM; in assay [1], 11.53 ± 0.04 µM. Moreover, the MIC is 1.56 µg/mL (≈ 3.36 µM) in assay [2]; 1.56 µg/mL (≈ 3.36 µM) in [3]; 1.56 µg/mL (≈ 3.36 µM) in [4]; 1.56 µg/mL (≈ 3.36 µM) in the assay on MRSA-ATCC33591; 1.56 µg/mL (≈ 3.36 µM) in the assay on MRSA-ATCC700699 (VISA); 12.5 µg/mL (≈ 26.9 µM) in the assay with E. coli ATCC25922. The MIC in assay [5] was 6.25 to 12.5 µg/mL (≈ 13.5 to 26.9 µM); in assay [6], 12.5 µg/mL (≈ 26.9 µM); in assay [7], 6.25 µg/mL (≈ 13.5 µM); in assay [8], 25 µg/mL (≈ 53.8 µM). The “MIC times less than the MIC of vancomycin” value in the assay on MRSA-ATCC700699 (VISA) (VISA strain ATCC 700699, vancomycin 8 μg/mL) is recorded as around 5 times. Besides, the “MIC E. coli ATCC BAA2469 (NDM-1 carbapenem-resistant)” value in assay [5] worked out at 12.5 µg/mL (≈ 26.9 µM). Moreover, the “MIC fold higher than that of colistin” value in [6] stood at 2 fold.
With `COc1ccc2c(c1)c1c3n2[C@@]2(C=C/C(=N\Nc4ccc(C(F)(F)F)cc4)CC2)CC[C@@H]3NCC1` [Compound 1k], the IC50 came to 4.514 ± 0.03 µM with HELA; 5.491 ± 0.05 µM with A549; 2.276 ± 0.01 µM in the assay with HEP3B; 3.57 ± 0.34 µM in the assay with MCF-7; 28.01 ± 0.09 µM in [1]. For the same compound, the MIC in [2] was determined as 1.56 µg/mL (≈ 3.25 µM); in assay [3], 1.56 µg/mL (≈ 3.25 µM); in [4], 1.56 µg/mL (≈ 3.25 µM); in the assay with MRSA-ATCC33591, 3.12 µg/mL (≈ 6.5 µM); in the assay on MRSA-ATCC700699 (VISA), 3.12 µg/mL (≈ 6.5 µM); with E. coli ATCC25922, 6.25 µg/mL (≈ 13 µM). Moreover, the MIC in assay [5] came out at 25 µg/mL (≈ 52 µM); in [6], 50 µg/mL (≈ 104 µM); in [7] it was 6.25 µg/mL (≈ 13 µM); in assay [8] it was 50 µg/mL (≈ 104 µM).
